# From US12338261B2 (SUMITOMO PHARMA ONCOLOGY, INC., priority 2015, dated 2025)
# Read-outs that look alike come from different tables or passages of the source.
# How the values were obtained:
# [1] = CD-1, mouse, in vivo
# [2] = for MTDrepeat: female SHO SCID mice, five daily doses
# Experimental: Repeat dose toxicology studies were performed in female SHO SCID mice using 3 animals per treatment group. […] Body weight measurements of animals treated by oral (see FIGS. 3A-B) and intravenous (see FIG. 3C-D) dosing over the course of the 5-day repeat dosing period and subsequent 5-day observation period, along with mortality and clinical observations, were used to determine the maximum tolerated dosing schedule (MTDrepeat).
# [3] = format: in vitro ADME, rat; conditions: for % Remaining: rat, plasma
# Experimental: (§1) The plasma stability of compound IB′ was determined using plasma from four species. Results for mouse, rat, dog and human are shown in Tables 5, 6, 7 and 8 respectively. Alvocidib and flumazenil were used as controls. In mouse, rat and human plasma, compound IB′ maintained 100% stability after 5 hour incubation. In dog plasma, approximately 90% of compound IB′ remained after 5 hours.
# [4] = rat, in vivo, po
# Experimental: (§2) Acute (i.e. single dose) toxicology studies were performed in rats. Acute studies were performed in female Sprague Dawley rats using three animals per treatment group. […] Body weight measurements following oral dosing (see FIG. 4A), along with mortality, clinical observations, food consumption (see FIG. 4B), and complete blood counts (CBCs; see Table 12) were used to determine the maximum tolerated acute dose (MTDacute).
# [5] = female SHO SCID mice, single dose
# Experimental: Acute studies were performed in female SHO SCID mice using three animals per treatment group. […] Body weight measurements following oral dosing (FIGS. 2A-B) and intravenous (IV) dosing (FIG. 2C-D) were used, along with mortality and clinical observations to determine the maximum tolerated acute dose (MTDacute).
# Dog plasma stability = format: in vitro ADME
# Experimental: as §1
# [6] = Maximum tolerated acute dose in rats
# Experimental: as §2
# Human plasma stability = format: in vitro ADME
# Experimental: The plasma stability of compound IB′ was determined using plasma from four species.
# [7] = format: in vitro ADME, mouse; conditions: for % Remaining: mouse, plasma
# Experimental: as §1
# [8] = Pharmacokinetic profile of alvocidib prodrugs in CD-1 mice (IV/PO)
# [9] = rats, single oral dose 36 mg/kg
smiles,measurement,setting,value
CN1CC[C@H](c2c(O)cc(O)c3c(=O)cc(-c4ccccc4Cl)oc23)[C@H](O)C1 [Alvocidib],Bioavail.,[1],102 ± 11.7 % F
same,AUC0-∞,"[1]; iv, 1 mg/kg",517.0 ± 47.0 ng·h/mL
same,AUCLast,"[1]; iv, 1 mg/kg",498.0 ± 46.0 ng·h/mL
same,Clearance,"[1]; iv, 1 mg/kg",31.7 ± 3.3 mL/min/kg
same,Half life,"[1]; iv, 1 mg/kg",2.0 ± 0.4 h
same,Vd,"[1]; iv, 1 mg/kg",5.5 ± 1.2 L/kg
same,VdSS,"[1]; iv, 1 mg/kg",3.8 ± 0.6 L/kg
same,AUC0-∞,"[1]; po, 10 mg/kg",5341.1 ± 274.2 ng·h/mL
same,AUCLast,"[1]; po, 10 mg/kg",5034.1 ± 145.6 ng·h/mL
same,Half life,"[1]; po, 10 mg/kg",5.7 ± 0.7 h
same,MTDrepeat,[2]; dosed intravenously,7.5 mg/kg
same,MTDrepeat,[2]; dosed orally,7.5 mg/kg
same,clinical observations,"[2]; mouse, in vivo, 15 mg/kg","Lethargy, body weight loss, and deaths were observed"
same,% Remaining,[3]; 0 h,100.00%
same,% Remaining,[3]; 0.5 h,93.12%
same,% Remaining,[3]; 1 h,90.20%
same,% Remaining,[3]; 2 h,99.31%
same,% Remaining,[3]; 3 h,98.69%
same,% Remaining,[3]; 4 h,92.57%
same,HCT,[4]; 4.5 mg/kg,43.6%
same,MCH,[4]; 4.5 mg/kg,18.7 pg
same,MCHC,[4]; 4.5 mg/kg,35.4 g/dL
same,MCV,[4]; 4.5 mg/kg,52.7 fL
same,PLT,[4]; 4.5 mg/kg,34.7 10^3/μL
same,RBC,[4]; 4.5 mg/kg,8.3 10^6/μL
same,RDWA,[4]; 4.5 mg/kg,16.0 fL
same,WBC,[4]; 4.5 mg/kg,15.4 10^3/μL
same,platelet counts versus normal range,[4]; 4.5 mg/kg,outside the normal range
same,HCT,[4]; 9 mg/kg,47.1%
same,MCH,[4]; 9 mg/kg,19.3 pg
same,MCHC,[4]; 9 mg/kg,35.7 g/dL
same,MCV,[4]; 9 mg/kg,54.0 fL
same,PLT,[4]; 9 mg/kg,36.3 10^3/μL
same,RBC,[4]; 9 mg/kg,8.7 10^6/μL
same,RDWA,[4]; 9 mg/kg,16.2 fL
same,WBC,[4]; 9 mg/kg,16.8 10^3/μL
same,HCT,[4]; 18 mg/kg,47.3%
same,MCH,[4]; 18 mg/kg,19.3 pg
same,MCHC,[4]; 18 mg/kg,35.9 g/dL
same,MCV,[4]; 18 mg/kg,53.8 fL
same,PLT,[4]; 18 mg/kg,36.1 10^3/μL
same,RBC,[4]; 18 mg/kg,8.8 10^6/μL
same,RDWA,[4]; 18 mg/kg,16.1 fL
same,WBC,[4]; 18 mg/kg,16.9 10^3/μL
same,abnormal food consumption patterns,[4]; 18 mg/kg,abnormal food consumption patterns were observed
same,diarrhea,[4]; 18 mg/kg,did show signs of diarrhea
same,MTDacute,[5]; dosed intravenously,7.5 mg/kg
same,MTDacute,[5]; dosed orally,15 mg/kg
same,% Remaining,"Dog plasma stability; dog plasma, 0 hours",100.00%
same,% Remaining,"Dog plasma stability; dog plasma, 0.5 hours",96.41%
same,% Remaining,"Dog plasma stability; dog plasma, 1 hour",89.16%
same,% Remaining,"Dog plasma stability; dog plasma, 2 hours",105.76%
same,% Remaining,"Dog plasma stability; dog plasma, 3 hours",105.84%
same,% Remaining,"Dog plasma stability; dog plasma, 4 hours",97.65%
same,% Remaining,"Dog plasma stability; dog plasma, 5 hours",100.40%
same,% Remaining,"Dog plasma stability; dog plasma, 5 hours, listed as alvocidib",100%
same,NOAEL,"[6]; female, Sprague Dawley, rat, in vivo, po",9 mg/kg
same,% Remaining,"Human plasma stability; human plasma, 0 hours",100.00%
same,% Remaining,"Human plasma stability; human plasma, 0.5 hours",92.61%
same,% Remaining,"Human plasma stability; human plasma, 1 hour",93.54%
same,% Remaining,"Human plasma stability; human plasma, 2 hours",93.29%
same,% Remaining,"Human plasma stability; human plasma, 3 hours",111.62%
same,% Remaining,"Human plasma stability; human plasma, 4 hours",100.25%
same,% Remaining,"Human plasma stability; human plasma, 5 hours",100%
same,% Remaining,[7]; 0 h,100.00%
same,% Remaining,[7]; 0.5 h,93.58%
same,% Remaining,[7]; 1 h,103.12%
same,% Remaining,[7]; 2 h,97.19%
same,% Remaining,[7]; 3 h,117.38%
same,% Remaining,[7]; 4 h,115.72%
CN1CCC(c2c(OP(=O)(O)O)cc(O)c3c(=O)cc(-c4ccccc4Cl)oc23)C(O)C1 (stereo not drawn) [Compound IB],MTDrepeat,[2]; dosed orally,7.5 mg/kg
same,clinical observations,[6]; [9],"Diarrhea, body weight loss and increased lethargy were observed"
same,mortality,[6]; [9],"one animal died on day three, one animal died on day four, and one animal died on day 5"
CN1CC[C@H](c2c(O)cc(O)c3c(=O)cc(-c4ccccc4Cl)oc23)[C@H](OC(=O)C(C)(C)C)C1 [E],conversion to alvocidib in vivo (alvocidib detected in plasma samples),[8],did not convert to alvocidib in vivo
C[N+]1(C)CC[C@H](c2c(O)cc(O)c3c(=O)cc(-c4ccccc4Cl)oc23)[C@H](O)C1 [F],conversion to alvocidib in vivo (alvocidib detected in plasma samples),[8],did not convert to alvocidib in vivo
CCOC(=O)c1ncn2c1CN(C)C(=O)c1cc(F)ccc1-2 [Flumazenil],plasma stability (in words),[3],unstable
same,% Remaining,[3]; 0 h,100.00%
same,% Remaining,[3]; 0.5 h,42.23%
same,% Remaining,[3]; 1 h,16.13%
same,% Remaining,[3]; 2 h,1.69%
same,% Remaining,[3]; 3 h,0.23%
same,% Remaining,[3]; 4 h,0.00%
same,% Remaining,[3]; 5 h,0.00%
same,% Remaining,"Dog plasma stability; dog, plasma, 0 h",100.00%
same,% Remaining,"Dog plasma stability; dog, plasma, 0.5 h",91.80%
same,% Remaining,"Dog plasma stability; dog, plasma, 1 h",92.00%
same,% Remaining,"Dog plasma stability; dog, plasma, 2 h",100.99%
same,% Remaining,"Dog plasma stability; dog, plasma, 3 h",115.10%
same,% Remaining,"Dog plasma stability; dog, plasma, 4 h",99.44%
same,% Remaining,"Dog plasma stability; dog, plasma, 5 h",100.53%
same,% Remaining,"Human plasma stability; human, plasma, 0 h",100.00%
same,% Remaining,"Human plasma stability; human, plasma, 0.5 h",96.56%
same,% Remaining,"Human plasma stability; human, plasma, 1 h",90.83%
same,% Remaining,"Human plasma stability; human, plasma, 2 h",92.41%
same,% Remaining,"Human plasma stability; human, plasma, 3 h",117.98%
same,% Remaining,"Human plasma stability; human, plasma, 4 h",95.32%
same,% Remaining,"Human plasma stability; human, plasma, 5 h",94.63%
same,plasma stability (in words),[7],unstable
same,% Remaining,[7]; 0 h,100.00%
same,% Remaining,[7]; 0.5 h,29.96%
same,% Remaining,[7]; 1 h,10.21%
same,% Remaining,[7]; 2 h,1.56%
same,% Remaining,[7]; 3 h,0.39%
same,% Remaining,[7]; 4 h,0.20%
same,% Remaining,[7]; 5 h,0.07%
